Source: EPA's ToxRefDB 2

Assays:
rat [1] = details: Subchronic oral toxicity in rodents, wistar, Gavage/Intubation, dose end: 90 day, group: systemic
rat [2] = details: Chronic toxicity, wistar, Oral, Gavage/Intubation, dose end: 6 month, group: systemic
rabbit = details: Prenatal developmental toxicity study, himalayan, Injection, Intravenous, dose end: 18 GD
dog [3] = details: Chronic toxicity, beagle, Oral, Capsule, dose end: 1 year, group: systemic
rat [4] = details: Subchronic oral toxicity in rodents; wistar; Injection; Intravenous; dose end: 3 month; group: systemic; systemic / clinical chemistry / urea nitrogen / urea + systemic / hematology / erythrocyte (rbc) count differential / erythrocyte (rbc) + …
mouse [5] = details: Fertility (Segment I); other; Injection; Intravenous; dose end: 3 GD; group: parental; systemic / in life observation / clinical signs / motor activity
mouse [6] = details: Carcinogenicity, other, Oral, Gavage/Intubation, dose end: 106 week, group: systemic
rat [7] = details: Fertility (Segment I); wistar; Injection; Intravenous; dose end: 7 GD; group: parental; systemic / in life observation / clinical signs / motor activity + systemic / in life observation / clinical signs / urine, discoloration + …
rat [8] = details: Fertility (Segment I), wistar, Oral, Gavage/Intubation, dose end: 7 GD
dog [9] = details: Chronic toxicity, beagle, Oral, Capsule, dose end: 6 month, group: systemic
[10] = systemic / clinical chemistry / urea nitrogen / urea + systemic / hematology / blood clotting / blood clotting - clotting time + systemic / …
[11] = systemic / hematology / reticulocyte / reticulocyte + systemic / in life observation / clinical signs / teeth whitening + systemic / in life…
[12] = systemic / in life observation / clinical signs / tooth-broken
[13] = group: developmental, developmental / developmental malformation / general / crown-rump length + systemic / in life observation / body weight / fetal weight
[14] = group: maternal, systemic / in life observation / body weight / body weight gain + systemic / in life observation / clinical signs / [other] + systemic / in …
[15] = systemic / clinical chemistry / alanine aminotransferase (alt/sgpt) / alanine aminotransferase (alt/sgpt)
[16] = systemic / clinical chemistry / alanine aminotransferase (alt/sgpt) / alanine aminotransferase (alt/sgpt) + systemic / clinical chemistry / …
[17] = systemic / hematology / erythrocyte (rbc) count differential / erythrocyte (rbc) + systemic / hematology / hematocrit (hct) / hematocrit (…
[18] = systemic / hematology / leukocyte (wbc) count differential / leukocyte (wbc) + systemic / organ weight / kidney / relative to body weight
[19] = group: maternal, reproductive / reproductive performance / estrous cycle / corpora lutea + reproductive / reproductive performance / implantations / …
[20] = group: parental, systemic / in life observation / body weight / body weight + systemic / in life observation / clinical signs / ataxia + systemic / in life …
[21] = systemic / clinical chemistry / alanine aminotransferase (alt/sgpt) / alanine aminotransferase (alt/sgpt) + systemic / in life observation…

CC(C)c1ccc(C(=O)N=C(N)N)cc1S(C)(=O)=O.CS(=O)(=O)O [Cariporide mesylate]
LOAEL (rat [1]; [10]): 100 mg/kg/day
NEL (rat [1]; [10]): 5 mg/kg/day
NOAEL (rat [1]; [10]): 22 mg/kg/day
LEL (rat [1]; systemic / organ weight / liver / relative to body weight): 22 mg/kg/day
LOAEL (rat [2]; [11]): 25 mg/kg/day
NOAEL (rat [2]; [11]): 5 mg/kg/day
LEL (rat [2]; [12]): 5 mg/kg/day
NEL (rat [2]; [12]): < 5 mg/kg/day
LEL (rabbit; [13]): 40 mg/kg/day
LOAEL (rabbit; [13]): > 40 mg/kg/day
NEL (rabbit; [13]): 16 mg/kg/day
NOAEL (rabbit; [13]): ≥ 40 mg/kg/day
LOAEL (rabbit; [14]): > 40 mg/kg/day
NEL (rabbit; [14]): 6.3 mg/kg/day
NOAEL (rabbit; [14]): ≥ 40 mg/kg/day
LEL (rabbit; group: maternal, systemic / in life observation / clinical signs / piloerection + systemic / in life observation / food consumption / food consumption): 16 mg/kg/day
LEL (dog [3]; [15]): 3.2 mg/kg/day
NEL (dog [3]; [15]): < 3.2 mg/kg/day
LOAEL (dog [3]; [16]): > 20 mg/kg/day
NOAEL (dog [3]; [16]): ≥ 20 mg/kg/day
LEL (rat [4]): 125 mg/kg/day
LOAEL (rat [4]): 125 mg/kg/day
NEL (rat [4]): 25 mg/kg/day
NOAEL (rat [4]): 25 mg/kg/day
LEL (mouse [5]): 150 mg/kg/day
LOAEL (mouse [5]): > 150 mg/kg/day
NEL (mouse [5]): 50 mg/kg/day
NOAEL (mouse [5]): ≥ 150 mg/kg/day
LOAEL (mouse [6]; [17]): > 500 mg/kg/day
NOAEL (mouse [6]; [17]): ≥ 500 mg/kg/day
LEL (mouse [6]; [18]): 50 mg/kg/day
NEL (mouse [6]; [18]): < 50 mg/kg/day
LEL (rat [7]): 100 mg/kg/day
LOAEL (rat [7]): > 100 mg/kg/day
NEL (rat [7]): 25 mg/kg/day
NOAEL (rat [7]): ≥ 100 mg/kg/day
LEL (rat [8]; [19]): 400 mg/kg/day
LOAEL (rat [8]; [19]): > 400 mg/kg/day
NEL (rat [8]; [19]): 100 mg/kg/day
NOAEL (rat [8]; [19]): ≥ 400 mg/kg/day
LOAEL (rat [8]; [20]): > 400 mg/kg/day
NEL (rat [8]; [20]): 25 mg/kg/day
NOAEL (rat [8]; [20]): ≥ 400 mg/kg/day
LEL (rat [8]; group: parental, systemic / in life observation / clinical signs / salivation): 100 mg/kg/day
LEL (dog [9]; [15]): 8 mg/kg/day
LOAEL (dog [9]; [21]): > 20 mg/kg/day
NEL (dog [9]; [21]): 3.2 mg/kg/day
NOAEL (dog [9]; [21]): ≥ 20 mg/kg/day
